Laboratory results taken from paper PMC12202533, “Mechanistic Insights and Anti-cancer Activity of 2H-benzo[b][1,4]oxazin-3(4H)-one Linked 1,2,3-Triazoles in Human Cancer Cells” (Frontiers in Pharmacology, 2025).

Experiments:
A549 cells [1] = test: Western blot analysis of autophagy, DNA damage and cell cycle proteins; format: cell-based, human; settings: A549, 5, 10, 20 μM, 48 h
Method: Next, we measured the expression of key proteins involved in autophagy, DNA damage, and cell cycle progression in 14b and 14c compound-exposed cells. After treatment for 48 h, cell proteins were collected and measured by Western blot. […] Proteins in cell cycle progression, including cyclin D, cyclin E, and β-catenin, however, were not affected in the 14 b compound exposure group compared with the control group. […] However, the key regulators involved in autophagy and cell cycle progression, such as LC3, cyclin D, cyclin E, and β-catenin, were not changed.
FIGURE 7 Compounds 14b and 14c affected DNA damage and autophagy. A549 cells were treated with different concentrations of 14b (A) and 14c (B) (5 μM, 10 μM, and 20 μM) for 48 h. Protein expressions were analyzed by Western blot. Top: Western blot of LC3, γ-H2AX, PARP, cyclin D, cyclin E, and β-catenin. Bottom: quantitative measurements relative to ACTIN. Data are presented as mean ± SEM, *P < 0.05.
The following antibodies were used for Western blot analysis: LC3, γ-H2AX, PARP, cyclin D, cyclin E, β-Catenin, and β-actin. Cells were treated with compounds (0, 5, 10, and 20 μM) for 48 h, and total cell proteins were extracted using RIPA buffer containing a protease/phosphatase inhibitor cocktail. Protein expression levels were measured and analyzed by Western blotting.

HCT-116 = test: CCK-8 cell viability assay; format: cell-based; settings: Homo sapiens, HCT-116, 40 μM, 48 h, read-out: Cell viability (100%), 40 μM, 48 h, HCT-116
Method: In order to investigate the anticancer activity of new synthetic 1,4-benzoxazinone-linked 1,2,3-triazole compounds, we chose several cancer cell lines, including A549 (lung), Huh7 (liver), MCF-7 (breast), HCT-116 (colon), and SKOV3 (ovary), and measured cell viability using the CCK-8 assay. Cells were exposed to 40 μM of the compounds for 48 h, and then cell viability was determined. […] In addition, we used the reference drug gefitinib as a positive control and measured its cell viability on different cell lines. […] We used BEAS-2B cells as a normal cell line to determine the toxic effects of these compounds on normal cells. […] Furthermore, we evaluated the IC50 of these compounds in A549.
Human cancer cell lines A549, Huh7, MCF-7, HCT-116, and SKOV3 were obtained from ATCC. The cells were cultured in DMEM or RPMI 1640 medium supplemented with 10% FBS and 1% penicillin/streptomycin and incubated at 37°C in a CO2-humidified atmosphere.
Cells were cultured in DMEM or RPMI 1640 medium containing 10% FBS and 1% penicillin/streptomycin at 37°C and 5% CO2. The CCK-8 assay was performed on several human cancer cell lines, including A549, Huh7, MCF-7, HCT-116, and SKOV3, according to the manufacturer’s instructions. Cells were plated at a density of 5 × 10^3 cells per well in a 96-well plate. After 24 h of incubation, cells were treated with 40 μM compounds for 48 h. Cell viability was assessed by adding 10 μL of CCK-8 reagent, dissolved in the cell culture medium, and incubating for 1 h. Absorbance was measured at 450 nm using a microplate reader. IC50 values were determined using a dose-response curve with six concentrations (0, 10, 20, 40, 80, and 160 μM), and IC50 values were calculated using GraphPad Prism software.

A549 cells [2] = test: Annexin V-FITC/PI apoptosis quantification by flow cytometry; format: cell-based, human; settings: 48 h
Method: We used these two compounds to clarify this function and explore the underlying mechanism. To investigate whether the new compound could induce cell apoptosis, A549 cells were exposed to different concentrations of 14b and 14c for 48 h. The cells were then stained with Annexin V-FITC and propidium iodide (PI). The Annexin V-FITC/PI staining was performed to quantify the percentage of apoptotic cells by flow cytometry.
A549 cells were exposed to different concentrations of 14b and 14c (5 μM, 10 μM, and 20 μM) for 48 h. Cells were collected and stained with Annexin V-FITC and PI, and apoptotic cells were measured by flow cytometry. Data are presented as mean ± SEM, *P < 0.05.
A549 cells were plated at a density of 3 × 10^5 cells per well in a six-well plate. Compounds at concentrations of 0, 5, 10, or 20 μM were added to the cells for 48 h. Cells were then collected, washed with PBS, and stained with Annexin V-FITC and propidium iodide for 20 min. Apoptotic cells were quantified using a flow cytometer, and the data were further analyzed using FlowJo software.

A549 cells [3] = test: RT-PCR gene expression; format: cell-based, human; settings: A549, 10 μM, 48 h
Method: To investigate the molecular mechanisms underlying the anti-tumor activity of 2H-1,4-benzoxazin-3(4H)-one-linked 1,2,3-triazole derivatives, we examined the expression of key genes involved in cell growth and death, including those related to DNA damage, oxidative stress, apoptosis, and autophagy (Figure 5). Gene expression was assessed in A549 cells treated with 14b or 14c (10 μM) for 48 h. […] The regulation of gene expression is a complex process regulated by many signaling pathways, and these signaling pathways interact with each other, all of which lead to a change in gene expression, not all in the same direction. Although the DNA damage gene p21 was decreased, another key gene, H2AX, was increased, which may stimulate DNA damage. These findings in A549 cells align with the results observed following 14b and 14c treatments.
FIGURE 5 Compounds 14b and 14c increased the gene expression. A549 cells were treated with 14b (A) and 14c (B) (10 μM) for 48 h. Gene expressions were detected by RT-PCR. Data are presented as mean ± SEM, *P < 0.05.
A549 cells were seeded in 12-well plates and treated with compounds for 48 h. Total RNA was extracted using TRIzol reagent, and RT-PCR was performed using PowerUp™ SYBR™ Green Master Mix. Gene expression was normalized to GAPDH. The results are expressed as mean ± SEM, and statistical significance was assessed using a two-tailed Student’s t-test (P < 0.05).

A549 cells [4] = test: Autophagy staining assay (MDC probe); format: cell-based, human; settings: A549, 10, 20, and 30 μM, 24 h
Method: To further evaluate the role of 2H-1,4-benzoxazin-3(4H)-one-linked 1,2,3-Triazole derivatives in regulating autophagy, A549 cells were treated with different doses (10, 20, and 30 μM) of compounds 14b and 14c for 24 h, and the autophagosome was detected by MDC (monodansylcadaverine) probe.
A549 cells were seeded at a density of 2 × 10^3 cells per well in a 96-well plate and treated with compounds at concentrations of 0, 5, 10, 20, and 30 μM for 24 h. After treatment, the medium was replaced, and cells were stained with monodansylcadaverine for 1 h in the dark at 37°C. Cells were then imaged using a confocal microscope.

Structure (SMILES)	PARP expression (A549 cells [1])	cell cycle progression proteins cyclin D, cyclin E, and β-catenin (A549 cells [1])	ratio of LC3II to LC3I / LC3 (autophagy) (A549 cells [1])	γ-H2AX protein expression (A549 cells [1])	viability at 40 µM (HCT-116) [%]	percentage of early and late apoptotic cells (A549 cells [2]; A549, 5 μM) [%]	percentage of early and late apoptotic cells (A549 cells [2]; A549, 10 μM) [%]	percentage of early and late apoptotic cells (A549 cells [2]; A549, 20 μM) [%]	ATG7 gene expression (A549 cells [3])	Nrf2 gene expression (A549 cells [3])	p53 gene expression (A549 cells [3])	autophagy (autophagosome, MDC probe) (A549 cells [4])	Gpx4 gene expression (A549 cells [3])	H2AX gene expression (A549 cells [3])	apoptosis-related genes expression (A549 cells [3])
O=C1COc2ccc(NC(=O)c3cccc(-c4cn(-c5cccc(Br)c5)nn4)c3)cc2N1 [Compound 14b]	not changed	not affected	increased	induced	125 ± 2.78	13.92	25.85	49.04	increased expression	increased expression	increased expression	autophagy was largely induced			
O=C1COc2ccc(NC(=O)c3cccc(-c4cn(-c5ccccc5F)nn4)c3)cc2N1 [Compound 14c]		not changed	not changed	increased expression	65.3 ± 4.55	12.57	27.21	72.02	upregulated			autophagy was largely induced	upregulated	upregulated	either downregulated or unchanged
